System: apoE −/− mice
Assay: ApoE−/− mice flow cessation model (ligated carotid, Western diet)
Format: in vivo
Text: FIG. 17A-J: Dose-response effect of P2Y13 agonist on atherosclerotic plaque progression in ApoE^−/− mice. ApoE^−/− mice (n=7) were ligated on the upper part of the left carotids. On the day of the surgery the animals were placed on a Western diet and given an oral gavage of vehicle or increasing doses of Compound IIa. Ligated carotids were lipid extracted in 2:1 chloroform/methanol. FIG. 17A: the concentrations in unesterified cholesterol (dark bars) and total cholesterol (superimposed gray bars) were measured by HPLC. FIG. 17E and FIG. 17H: hematoxylin eosin staining of longitudinal sections of ApoE^−/− mice carotids. FIG. 17F and FIG. 17I: Oil Red O staining of longitudinal sections of ApoE^−/− mice carotids. FIG. 17G and FIG. 17J: CD-68 antibody staining of longitudinal sections of ApoE^−/− mice carotids. FIG. 17B: quantification of the intima/media ratio (n=10). FIG. 17C: Oil Red O positive staining quantification (n=10). FIG. 17D: CD68 antibody staining quantification (n=10). The mice were dosed for 2 weeks with vehicle (FIG. 17E, FIG. 17F and FIG. 17G) or Compound IIa at 100 μg/kg (FIG. 17H, FIG. 17I and FIG. 17J).
ApoE^−/− mice “flow cessation model”: Left carotid of apoE^−/− mice were ligatured and placed on Western diet. These mice were given Compound IIa once a day at 100 μg/kg (0.5% CMC, 0.2% Tween80) for 2 weeks.
The left carotid fixed in formalin was embedded in OCT and frozen at −20° C. Four step frozen sections of 50 μm separated one from the other were processed and stained with Oil red O (ORO). Macrophages were detected using primary rat monoclonal anti CD-68 antibody (Abcam).
The effect of the stimulation of the P2Y13r pathway by the agonists on the atherosclerotic plaque lesions in apoE −/− mice that are very susceptible to develop atherosclerosis on a short term Western (i.e. high-cholesterol) diet was investigated. […] The quantification of plaque components by histo-pathological analysis of the treated carotids with hematoxylin-eosin (FIG. 17B, E, H), oil-red O staining (FIG. 17C, F, I) and with CD68 antibody (specific of the macrophages), (FIG. 17D, G, J) further confirmed this observation.

## CN(C)c1ncc(CN2CCC(c3cc(O)nc(N4CCOCC4)n3)CC2)cn1 [Compound IIa, 6-[1-(2-Dimethylaminopyrimidin-5-ylmethyl)-piperidin-4-yl]-2-morpholin-4-yl-pyrimidin-4-ol]
100 μg/kg, vehicle 18.2+/−3.6
  cholesterol deposit in non-inflammatory right carotids: 7.5+/−3.4 nmole/mg of tissue
Oral dosing for 2 weeks along with high-cholesterol diet, ligated carotid
  progression of the atherosclerosis lesions (lesion cholesterol content) compared to control animals: dose-dependent inhibition
Summary statement
  inhibition of the atherosclerosis progression in mice: dramatic effect
Treated animals, 2 weeks
  lipid content of the carotids (staining): decrease

Reference: patent publication US10220040B2, “Compounds, compositions and methods useful for cholesterol mobilization” (Cerenis Therapeutics Holding SA, priority 2010, dated 2019)
